Values quoted from earlier work as cited in US20190151262A1, “USE OF N-ACETYLCYSTEINE AMIDE FOR DECREASING INTRACRANIAL PRESSURE” (priority 2013, published 2019).

System: intra-cranial pressure
Settings: previously tried anti-oxidant; Thomale et al. Intensive Care Med. 32:149-155 (2006)

SMILES: CC(=O)N[C@@H](CS)C(=O)O [NAC, n-acetylcysteine]
- decrease of intra-cranial pressure: no success
